Here are results for 32 compounds from US10233173B2, “Substituted 1,2,3-triazoles as NR2B-selective NMDA modulators” (JANSSEN PHARMACEUTICA NV, priority 2016, dated 2019).

This assay addresses human GluN1/GluN2B NMDA receptors (Homo sapiens, UniProt Q05586+Q13224). The assay is described as follows: Cell-based calcium flux (FLIPR) assay on cloned human NR1/NR2B ion channels expressed in mammalian cells. The conditions noted are these: standard assay. The protocol:
Effects of Test Articles on Cloned Human NR1/NR2B Ion Channels Expressed in Mammalian Cells
NMDA receptors are ion channels that are highly permeable to Ca^2+ ions, rendering it possible to monitor NMDA receptor function using cell-based calcium flux assay. In this assay, co-agonists glutamate and glycine are added to cells heterologously expressing human GluN1/GluN2B NMDA receptors to initiate cellular Ca^2+ influx. The time course of the changes in intracellular calcium is measured using a fluorescent dye and a FLIPR (Fluorometric Imaging Plate Reader) device.
Twenty four hours before measurements, the expression of the NMDA receptors in the stable cell line is induced with Tet-On inducible system in the presence of a non-selective NMDA receptor blocker. On the day of the experiment, cell culture media is carefully washed and the cells are loaded with Calcium 5 Dye Kit (Molecular Devices) in dye loading buffer containing 149 mM NaCl, 4 mM KCl, 2 mM CaCl2, and 1.5 mM MgCl2, 10 mM HEPES and 5 mM D-glucose; pH 7.4. After 1 h incubation at the room temperature, the dye is washed away with the assay buffer (149 mM NaCl (standard assay) or 150 mM (HTS assay), 4 mM KCl (standard assay) or 3 mM (HTS assay), 2 mM CaCl2, 0.01 mM EDTA, 10 mM HEPES and 5 mM D-glucose; pH 7.4) In the FLIPR TETRA reader, various concentrations of the test compounds are added to the cells for 5 min while fluorescence is monitored to detect potential agonist activity. Next, co-agonists, glutamate and glycine are added for another 5 minutes. The concentration of glutamate corresponding to ˜EC80 (standard assay) or EC40 (HTS assay) is used to maximize the assay's signal window or the ability to detect NMDA receptor antagonists and negative allosteric modulators, respectively. A saturating concentration (10 μM) of glycine is also present in the assay. […] The fluorescent signal in the presence of test compounds is quantified and normalized to the signal defined by the appropriate control wells.
For orientation: Calcium assays in cells follow changes in intracellular calcium, usually with a dye or a luminescent sensor.

[1] abbreviates: human GluN1/GluN2B, calcium flux (FLIPR), glutamate ~EC80.
Where [2] appears, read: glutamate at ~EC80, FLIPR calcium flux.

Each structure is given as a SMILES string.

What is called IC50 is the concentration that gives 50% inhibition.

Sequence of human GluN1/GluN2B NMDA receptors (Q13224 27-1484, other chains not shown): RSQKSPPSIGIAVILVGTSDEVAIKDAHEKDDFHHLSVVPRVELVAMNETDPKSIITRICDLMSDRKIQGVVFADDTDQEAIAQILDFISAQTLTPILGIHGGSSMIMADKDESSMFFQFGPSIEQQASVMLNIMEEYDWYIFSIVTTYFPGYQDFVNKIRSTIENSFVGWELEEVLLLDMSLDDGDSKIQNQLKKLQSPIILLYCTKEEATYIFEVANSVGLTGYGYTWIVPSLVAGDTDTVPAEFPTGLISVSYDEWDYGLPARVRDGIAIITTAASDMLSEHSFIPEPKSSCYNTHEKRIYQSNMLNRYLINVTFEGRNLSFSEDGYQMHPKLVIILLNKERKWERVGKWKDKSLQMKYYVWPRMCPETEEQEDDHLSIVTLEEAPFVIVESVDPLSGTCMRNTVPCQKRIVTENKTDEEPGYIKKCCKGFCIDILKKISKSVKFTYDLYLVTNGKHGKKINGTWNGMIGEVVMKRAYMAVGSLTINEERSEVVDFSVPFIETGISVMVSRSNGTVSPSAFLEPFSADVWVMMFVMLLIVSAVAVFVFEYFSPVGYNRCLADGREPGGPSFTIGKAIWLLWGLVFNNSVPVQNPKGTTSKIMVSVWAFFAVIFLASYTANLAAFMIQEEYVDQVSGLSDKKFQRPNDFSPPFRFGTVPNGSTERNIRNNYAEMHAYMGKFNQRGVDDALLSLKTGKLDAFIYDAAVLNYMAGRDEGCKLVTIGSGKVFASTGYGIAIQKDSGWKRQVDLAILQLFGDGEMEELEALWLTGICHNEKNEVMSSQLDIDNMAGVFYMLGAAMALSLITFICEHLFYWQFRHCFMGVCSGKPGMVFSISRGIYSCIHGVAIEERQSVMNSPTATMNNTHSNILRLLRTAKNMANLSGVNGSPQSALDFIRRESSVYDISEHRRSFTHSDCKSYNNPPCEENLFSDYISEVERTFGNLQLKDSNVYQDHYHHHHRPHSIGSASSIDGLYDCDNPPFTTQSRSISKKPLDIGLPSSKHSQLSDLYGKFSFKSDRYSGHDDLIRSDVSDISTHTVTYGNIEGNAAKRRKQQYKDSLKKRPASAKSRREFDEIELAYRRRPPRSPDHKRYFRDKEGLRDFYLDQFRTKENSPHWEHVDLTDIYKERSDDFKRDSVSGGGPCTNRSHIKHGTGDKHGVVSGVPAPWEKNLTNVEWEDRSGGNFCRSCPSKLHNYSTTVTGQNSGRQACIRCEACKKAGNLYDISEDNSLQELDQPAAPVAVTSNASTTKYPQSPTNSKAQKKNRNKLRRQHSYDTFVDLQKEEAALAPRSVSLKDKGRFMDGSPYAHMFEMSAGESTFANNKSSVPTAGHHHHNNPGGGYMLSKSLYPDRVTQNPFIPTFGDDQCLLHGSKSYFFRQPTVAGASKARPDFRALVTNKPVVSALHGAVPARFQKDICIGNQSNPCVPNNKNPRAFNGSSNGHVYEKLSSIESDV

For the compound `CC(Oc1ncccn1)c1cn(-c2ccc(Cl)c(OC(F)F)c2)nn1` (racemic) [Example 53, (R/S)-2-[1-[1-[4-Chloro-3-(difluoromethoxy)phenyl]triazol-4-yl]ethoxy]pyrimidine], under setting [1], the IC50 was 0.026 µM. Same read-out and setting: under `Cc1cnc(OC(C)c2cn(-c3ccc(Cl)c(OC(F)F)c3)nn2)nc1` (racemic) [Example 56, (R/S)-2-[1-[1-[4-Chloro-3-(difluoromethoxy)phenyl]triazol-4-yl]ethoxy]-5-methyl-pyrimidine] stands 0.028 µM; under `Cc1ccnc(OC(C)c2cn(-c3ccc(Cl)c(OC(F)F)c3)nn2)n1` (racemic) [Example 59, (R/S)-2-[1-[1-[4-Chloro-3-(difluoromethoxy)phenyl]triazol-4-yl]ethoxy]-4-methyl-pyrimidine], 0.04 µM. Consider `CC(Oc1ncc(Cl)cn1)c1cn(-c2ccc(Cl)c(OC(F)F)c2)nn1` (racemic) [Example 60, (R/S)-5-Chloro-2-[1-[1-[4-chloro-3-(difluoromethoxy)phenyl]triazol-4-yl]ethoxy]pyrimidine], for which the IC50 under setting [1] is 0.032 µM.

Take `CC(O)c1cnc(OCc2cn(-c3ccc(F)c(C(F)F)c3)nn2)nc1` (racemic) [Example 157, (R/S)-1-[2-[[1-[3-(Difluoromethyl)-4-fluoro-phenyl]triazol-4-yl]methoxy]pyrimidin-5-yl]ethanol]: under setting [1], the IC50 was found to be 0.018 µM.

Regarding `CC(N)c1ccnc(OCc2cn(-c3ccc(F)c(OC(F)F)c3)nn2)n1` (racemic) [Example 163, (R/S) 1-[2-[[1-[3-(Difluoromethoxy)-4-fluoro-phenyl]triazol-4-yl]methoxy]pyrimidin-4-yl]ethanamine], under setting [1], the IC50 worked out at 1.4 µM.

Consider `CC(F)(F)c1cccc(-n2cc(COc3ncc(C(C)(O)C(F)(F)F)cn3)nn2)c1` (racemic) [Example 305, (R/S)-2-[2-[[1-[3-(1,1-Difluoroethyl)phenyl]triazol-4-yl]methoxy]pyrimidin-5-yl]-1,1,1-trifluoro-propan-2-ol], for which, under setting [1], the IC50 worked out at 0.496 µM. On to `CC(O)c1cnc(OCc2cn(-c3cccc(C(C)(F)F)c3)nn2)nc1` (racemic) [Example 310, (R/S)-1-[2-[[1-[3-(1,1-Difluoroethyl)phenyl]triazol-4-yl]methoxy]pyrimidin-5-yl]ethanol], for which the IC50 under setting [1] turned out to be 0.037 µM.

As to `COC(C)c1cnc(OCc2cn(-c3cccc(C(C)(F)F)c3)nn2)nc1` (racemic) [Example 311, (R/S)-2-[[1-[3-(1,1-Difluoroethyl)phenyl]triazol-4-yl]methoxy]-5-(1-methoxyethyl)pyrimidine], under setting [1], the IC50 turned out to be 1.58 µM. Turning to `CC(O)(c1cnc(OCc2cn(-c3ccc(F)c(C(F)F)c3)nn2)nc1)C(F)(F)F` (racemic) [Example 404, (R/S)-2-[2-[[1-[3-(Difluoromethyl)-4-fluoro-phenyl]triazol-4-yl]methoxy]pyrimidin-5-yl]-1,1,1-trifluoro-propan-2-ol], the IC50 under setting [2] came out at 0.482 µM. As for `CC(O)(c1cnc(OCc2cn(-c3ccc(F)c(C(F)(F)F)c3)nn2)nc1)C(F)(F)F` (racemic) [Example 441, (R/S)-1,1,1-Trifluoro-2-[2-[[1-[4-fluoro-3-(trifluoromethyl)phenyl]triazol-4-yl]methoxy]pyrimidin-5-yl]propan-2-ol], the half-maximal inhibitory concentration (IC50) under setting [2] is 0.412 µM. On to `CC(O)c1cnc(OCc2cn(-c3ccc(F)c(C(F)(F)F)c3)nn2)nc1` (racemic) [Example 448, (R/S)-1-[2-[[1-[4-Fluoro-3-(trifluoromethyl)phenyl]triazol-4-yl]methoxy]pyrimidin-5-yl]ethanol], for which the IC50 under setting [2] amounted to 0.031 µM.

Consider `CC(F)(F)c1cc(-n2cc(COc3ncc(C(C)(O)C(F)(F)F)cn3)nn2)ccc1Cl` (racemic) [Example 539, (R/S)-2-[2-[[1-[4-Chloro-3-(1,1-difluoroethyl)phenyl]triazol-4-yl]methoxy]pyrimidin-5-yl]-1,1,1-trifluoro-propan-2-ol], for which, under setting [2], the IC50 stood at 0.45 µM.

In the case of `CC(O)c1cnc(OCc2cn(-c3ccc(Cl)c(C(C)(F)F)c3)nn2)nc1` (racemic) [Example 551, (R/S)-1-[2-[[1-[4-Chloro-3-(1,1-difluoroethyl)phenyl]triazol-4-yl]methoxy]pyrimidin-5-yl]ethanol], the IC50 under setting [2] amounted to 0.014 µM.

With `CC(F)(F)c1cc(-n2cc(COc3ncc(C(C)(O)C(F)(F)F)cn3)nn2)ccc1F` (racemic) [Example 565, (R/S)-2-[2-[[1-[3-(1,1-Difluoroethyl)-4-fluoro-phenyl]triazol-4-yl]methoxy]pyrimidin-5-yl]-1,1,1-trifluoro-propan-2-ol], the IC50 under setting [2] stood at 0.308 µM. Still for that read-out and setting: under `CC(O)c1cnc(OCc2cn(-c3ccc(F)c(C(C)(F)F)c3)nn2)nc1` (racemic) [Example 586, (R/S)-1-[2-[[1-[3-(1,1-Difluoroethyl)-4-fluoro-phenyl]triazol-4-yl]methoxy]pyrimidin-5-yl]ethanol] stands 0.014 µM. Regarding `CC(Oc1ncccn1)c1cn(-c2ccc(Cl)c(OC(F)F)c2)nn1` (single isomer, unassigned) [Example 54, (R*)-2-[1-[1-[4-Chloro-3-(difluoromethoxy)phenyl]triazol-4-yl]ethoxy]pyrimidine], the IC50 under setting [1] turned out to be 4.64 µM. Same read-out and setting: the result for `CC(Oc1ncccn1)c1cn(-c2ccc(Cl)c(OC(F)F)c2)nn1` (single isomer, unassigned) [Example 55, (S*)-2-[1-[1-[4-Chloro-3-(difluoromethoxy)phenyl]triazol-4-yl]ethoxy]pyrimidine] reads 0.008 µM; that for `Cc1cnc(OC(C)c2cn(-c3ccc(Cl)c(OC(F)F)c3)nn2)nc1` (single isomer, unassigned) [Example 57, (R*)-2-[1-[1-[4-Chloro-3-(difluoromethoxy)phenyl]triazol-4-yl]ethoxy]-5-methyl-pyrimidine], 0.338 µM; that for `Cc1cnc(OC(C)c2cn(-c3ccc(Cl)c(OC(F)F)c3)nn2)nc1` (single isomer, unassigned) [Example 58, (S*)-2-[1-[1-[4-Chloro-3-(difluoromethoxy)phenyl]triazol-4-yl]ethoxy]-5-methyl-pyrimidine], 0.007 µM. As for `FC(F)c1cc(-n2cc(COc3ncccn3)nn2)ccc1Cl` [Example 1, 2-((1-(4-Chloro-3-(difluoromethyl)phenyl)-1H-1,2,3-triazol-4-yl)methoxy)pyrimidine], under setting [1], the IC50 was 0.049 µM. In the case of `FC(F)Oc1cc(-n2cc(CNc3ccccn3)nn2)ccc1Cl` [Example 2, N-((1-(4-Chloro-3-(difluoromethoxy)phenyl)-1H-1,2,3-triazol-4-yl)methyl)pyridin-2-amine], under setting [1], the IC50 was found to be 0.213 µM. As to `Fc1ccc(-n2cc(CNc3ncccn3)nn2)cc1C(F)(F)F` [Example 3, N-[[1-[4-Fluoro-3-(trifluoromethyl)phenyl]triazol-4-yl]methyl]pyrimidin-2-amine], the IC50 under setting [1] stood at 2.8 µM. Still for that read-out and setting: the result for `Fc1ccc(-n2cc(COc3ccccn3)nn2)cc1OC(F)F` [Example 4, 2-[[1-[3-(Difluoromethoxy)-4-fluoro-phenyl]triazol-4-yl]methoxy]pyridine] reads 0.392 µM; that for `FC(F)Oc1cc(-n2cc(COc3cccnc3)nn2)ccc1Cl` [Example 5, 3-[[1-[4-Chloro-3-(difluoromethoxy)phenyl]triazol-4-yl]methoxy]pyridine], 0.333 µM. Take `FC(F)c1cccc(-n2cc(CNc3ncccn3)nn2)c1` [Example 6]: under setting [1], the IC50 was found to be 10.6 µM. Consider `Cn1ccnc1NCc1cn(-c2ccc(F)c(OC(F)F)c2)nn1` [Example 7, N-[[1-[3-(Difluoromethoxy)-4-fluoro-phenyl]triazol-4-yl]methyl]-1-methyl-imidazol-2-amine], for which the IC50 under setting [1] is 1.87 µM. Regarding `Cc1cccc(OCc2cn(-c3ccc(F)c(OC(F)F)c3)nn2)n1` [Example 8, 2-[[1-[3-(Difluoromethoxy)-4-fluoro-phenyl]triazol-4-yl]methoxy]-6-methyl-pyridine], the IC50 under setting [1] came out at 0.022 µM. For the compound `Fc1ccc(-n2cc(COc3ncccn3)nn2)cc1Br` [Example 9, 2-[[1-(3-Bromo-4-fluoro-phenyl)triazol-4-yl]methoxy]pyrimidine], the 50% inhibitory concentration (IC50) under setting [1] worked out at 0.02 µM. For the compound `FC(F)Oc1cc(-n2cc(COc3ncccn3)nn2)ccc1Cl` [Example 10, 2-[[1-[4-Chloro-3-(difluoromethoxy)phenyl]triazol-4-yl]methoxy]pyrimidine], the IC50 under setting [1] amounted to 0.01 µM. Turning to `FC(F)c1cc(-n2cc(COc3ccccn3)nn2)ccc1Cl` [Example 11, 2-[[1-[4-Chloro-3-(difluoromethyl)phenyl]triazol-4-yl]methoxy]pyridine], the IC50 under setting [1] is 1.2 µM. On to `FC(F)c1cc(-n2cc(COc3ccncn3)nn2)ccc1Cl` [Example 12, 4-[[1-[4-Chloro-3-(difluoromethyl)phenyl]triazol-4-yl]methoxy]pyrimidine], for which the IC50 under setting [1] worked out at 2.23 µM.
